Source: patent US10106556B2, “Heterocyclic compound” (TAKEDA PHARMACEUTICAL COMPANY LIMITED, priority 2015, dated 2018)

Target: T1, His-hMAGL (recombinant polyhistidine tagged human MAGL protein) (Homo sapiens, UniProt Q99685)
T1 construct: made in house; host or cells: E. coli BL21(DE3)
T1 sequence (Q99685 1-303): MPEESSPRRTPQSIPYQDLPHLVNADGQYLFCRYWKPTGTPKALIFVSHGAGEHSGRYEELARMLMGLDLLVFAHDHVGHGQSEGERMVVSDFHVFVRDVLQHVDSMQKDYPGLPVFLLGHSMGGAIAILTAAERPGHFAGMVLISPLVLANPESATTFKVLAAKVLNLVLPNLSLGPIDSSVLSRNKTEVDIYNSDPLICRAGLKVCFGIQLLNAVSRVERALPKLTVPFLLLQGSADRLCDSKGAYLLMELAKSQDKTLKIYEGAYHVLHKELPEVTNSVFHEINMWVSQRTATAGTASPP
Experiment: Measurement of MAGL inhibitory activity (arachidonic acid production from 2-arachidonylglycerol, RapidFire-mass spectrometry)
Format: biochemical
Details: MAGL inhibitory rate at 10 μM test compound; 60 min preincubation with His-hMAGL, 2-arachidonylglycerol substrate, 10 min reaction at room temperature
Procedure, shortened: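 Recombinant His-tagged human MAGL converted 2-arachidonylglycerol to arachidonic acid. Reactions received acetonitrile with 3 μM arachidonic acid-d8 as internal standard, and product was quantified by RapidFire SPE (C4) with negative-mode SRM mass spectrometry. Percent inhibition was calculated against compound-free and enzyme-free controls.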

inhibition at 10 µM [%]	Compound
100	O=C1COc2cc(F)c(C(=O)N3CC(COc4ccc(Cl)c(Cl)c4)C3)cc2N1 [Example 124, 6-((3-((3,4-dichlorophenoxy)methyl)azetidin-1-yl)carbonyl)-7-fluoro-2H-1,4-benzoxazin-3(4H)-one]
98	O=C1COc2ncc(C(=O)N3CCC(COc4ccc(Cl)cc4)CC3)cc2N1 [Example 6, 7-((4-((4-chlorophenoxy)methyl)piperidin-1-yl)carbonyl)-1H-pyrido[2,3-b][1,4]oxazin-2(3H)-one]
96	O=C1COc2cc(F)c(C(=O)N3CC(COc4noc5ccc(Cl)cc45)C3)cc2N1 [Example 180, 6-((3-(((5-chloro-1,2-benzoxazol-3-yl)oxy)methyl)azetidin-1-yl)carbonyl)-7-fluoro-2H-1,4-benzoxazin-3(4H)-one]
99	CC(Oc1ccc(F)c(F)c1)C1CN(C(=O)c2cc3c(cc2F)OCC(=O)N3)C1 (centres unmarked) [Example 304, 6-((3-(1-(3,4-difluorophenoxy)ethyl)azetidin-1-yl)carbonyl)-7-fluoro-2H-1,4-benzoxazin-3(4H)-one]
101	O=C1COc2ccc(C(=O)N3CCC(COc4cccc5[nH]ncc45)CC3)cc2N1 [Example 64, 6-((4-((1H-indazol-4-yloxy)methyl)piperidin-1-yl)carbonyl)-2H-1,4-benzoxazin-3(4H)-one]
100	O=C1COc2cc(F)c(C(=O)N3CC(COc4ccc(OC(F)(F)F)cc4)C3)cc2N1 [Example 143, 7-fluoro-6-((3-((4-(trifluoromethoxy)phenoxy)methyl)azetidin-1-yl)carbonyl)-2H-1,4-benzoxazin-3(4H)-one]
101	O=C1COc2cc(F)c(C(=O)N3CC(COc4ccc5c(c4)CCO5)C3)cc2N1 [Example 155, 6-((3-((2,3-dihydro-1-benzofuran-5-yloxy)methyl)azetidin-1-yl)carbonyl)-7-fluoro-2H-1,4-benzoxazin-3(4H)-one]
98	O=C1COc2cc(F)c(C(=O)N3CC(COc4ccc(Cl)cc4)C3)cc2N1 [Example 111, 6-((3-((4-chlorophenoxy)methyl)azetidin-1-yl)carbonyl)-7-fluoro-2H-1,4-benzoxazin-3(4H)-one]
99	O=C1COc2ccc(C(=O)N3CCC(COc4ccc(Cl)c(F)c4)CC3)cc2N1 [Example 42, 6-((4-((4-chloro-3-fluorophenoxy)methyl)piperidin-1-yl)carbonyl)-2H-1,4-benzoxazin-3(4H)-one]
90	Cc1cc2c(cc1C(=O)N1CCC(COc3ccc(F)cc3Cl)CC1)NC(=O)CO2 [Example 89, 6-((4-((2-chloro-4-fluorophenoxy)methyl)piperidin-1-yl)carbonyl)-7-methyl-2H-1,4-benzoxazin-3(4H)-one]
102	Cc1ccc(OCC2CN(C(=O)c3cc4c(cc3F)OCC(=O)N4)C2)c(C)n1 [Example 141, 6-((3-(((2,6-dimethylpyridin-3-yl)oxy)methyl)azetidin-1-yl)carbonyl)-7-fluoro-2H-1,4-benzoxazin-3(4H)-one]
99	O=C(c1cc2[nH]c(=O)oc2cc1F)N1CCC(COc2ccc(F)cc2Cl)CC1 [Example 101, 5-((4-((2-chloro-4-fluorophenoxy)methyl)piperidin-1-yl)carbonyl)-6-fluoro-1,3-benzoxazol-2(3H)-one]
100	CC(C)c1ccccc1OCC1CN(C(=O)c2cc3c(cc2F)OCC(=O)N3)C1 [Example 160, 7-fluoro-6-((3-((2-isopropylphenoxy)methyl)azetidin-1-yl)carbonyl)-2H-1,4-benzoxazin-3(4H)-one]
101	O=C1COc2cc(F)c(C(=O)N3CC(COc4cccc5[nH]ncc45)C3)cc2N1 [Example 107, 7-fluoro-6-((3-((1H-indazol-4-yloxy)methyl)azetidin-1-yl)carbonyl)-2H-1,4-benzoxazin-3(4H)-one]
102	O=C1COc2cc(F)c(C(=O)N3CC(OCc4ccccc4F)C3)cc2N1 [Example 330, 7-fluoro-6-((3-((2-fluorobenzyl)oxy)azetidin-1-yl)carbonyl)-2H-1,4-benzoxazin-3(4H)-one]
102	O=C1COc2cc(F)c(C(=O)N3CC(COc4cc(F)cc(Cl)c4)C3)cc2N1 [Example 134, 6-((3-((3-chloro-5-fluorophenoxy)methyl)azetidin-1-yl)carbonyl)-7-fluoro-2H-1,4-benzoxazin-3(4H)-one]
103	Cc1ccncc1-c1cc(Cl)ccc1OCC1CN(C(=O)c2cc3c(cc2F)OCC(=O)N3)C1 [Example 203, 6-((3-((4-chloro-2-(4-methylpyridin-3-yl)phenoxy)methyl)azetidin-1-yl)carbonyl)-7-fluoro-2H-1,4-benzoxazin-3(4H)-one]
100	N#Cc1ccc(OCC2CCN(C(=O)c3cc4c(cc3F)OCC(=O)N4)CC2)c(Cl)c1 [Example 70, 3-chloro-4-((1-((7-fluoro-3-oxo-3,4-dihydro-2H-1,4-benzoxazin-6-yl)carbonyl)piperidin-4-yl)methoxy)benzonitrile]
101	O=C1COc2cc(F)c(C(=O)N3CC(COc4ccc5c(c4)OCC5)C3)cc2N1 [Example 273, 6-((3-((2,3-dihydro-1-benzofuran-6-yloxy)methyl)azetidin-1-yl)carbonyl)-7-fluoro-2H-1,4-benzoxazin-3(4H)-one]
99	O=C1COc2cc(F)c(C(=O)N3CC(COc4ccc5nccn5c4-c4ccc(F)cc4)C3)cc2N1 [Example 181, 7-fluoro-6-((3-(((5-(4-fluorophenyl)imidazo[1,2-a]pyridin-6-yl)oxy)methyl)azetidin-1-yl)carbonyl)-2H-1,4-benzoxazin-3(4H)-one]
102	O=C1COc2cc(F)c(C(=O)N3CC(COc4cccc(Cl)c4Cl)C3)cc2N1 [Example 123, 6-((3-((2,3-dichlorophenoxy)methyl)azetidin-1-yl)carbonyl)-7-fluoro-2H-1,4-benzoxazin-3(4H)-one]
101	COc1cccc(COC2CN(C(=O)c3cc4c(cc3F)OCC(=O)N4)C2)c1 [Example 328, 7-fluoro-6-((3-((3-methoxybenzyl)oxy)azetidin-1-yl)carbonyl)-2H-1,4-benzoxazin-3(4H)-one]
103	O=C1COc2cc(F)c(C(=O)N3CC(COc4ccc(F)c(F)c4)C3)cc2N1 [Example 158, 6-((3-((3,4-difluorophenoxy)methyl)azetidin-1-yl)carbonyl)-7-fluoro-2H-1,4-benzoxazin-3(4H)-one]
102	N#Cc1ccc(OCC2CCN(C(=O)c3ccc4c(c3)NC(=O)CO4)CC2)c(Cl)c1 [Example 52, 3-chloro-4-((1-((3-oxo-3,4-dihydro-2H-1,4-benzoxazin-6-yl)carbonyl)piperidin-4-yl)methoxy)benzonitrile]
104	O=C1COc2cc(F)c(C(=O)N3CC(COc4ccc(Cl)cc4-c4cnn(C(F)F)c4)C3)cc2N1 [Example 214, 6-((3-((4-chloro-2-(1-(difluoromethyl)-1H-pyrazol-4-yl)phenoxy)methyl)azetidin-1-yl)carbonyl)-7-fluoro-2H-1,4-benzoxazin-3(4H)-one]
100	O=C1COc2cc(F)c(C(=O)N3CCC(COC4CCCCC4)CC3)cc2N1 [Example 80, 6-((4-((cyclohexyloxy)methyl)piperidin-1-yl)carbonyl)-7-fluoro-2H-1,4-benzoxazin-3(4H)-one]
